# Patent US20240358693A1, “METHODS OF TREATING PAIN” (Aisa Pharma, Inc., priority 2023, published 2024)
# System: participants with SSc-RP
# Experiment: Scleroderma Health Assessment Questionnaire (SHAQ): disability indices and visual analog scales
# Format: in vivo, human
# Conditions: PP Population, Part A, SSc patients, sensitivity analysis
# Description: The standard, validated, patient reported outcome measures tool for SSc patients, the Scleroderma Health Assessment Questionnaire (SHAQ), will be used to assess the participant qualify of life. Details are attached in the Appendix. The participant quality of life will be scored, and a disability index calculated for each questionnaire completed by the patient at Screening and each in-clinic visit. The absolute change in participant quality of life from baseline to the end of each dosing period will be calculated similar to frequency data as before.
# The SHAQ includes a Raynaud's VAS, which will be reported at screening and each in-clinic visit. The absolute change in Raynaud-VAS, assessed by the participants response to the SHAQ question ‘In the past 7 days, how much have your Raynaud's interfered with your daily activities?’ at baseline and the end of each dosing period will be calculated similar to frequency data as before.
# The SHAQ is used to calculate a Disability Index to assess the participant qualify of life. The eight categories assessed by the Disability Index are 1) dressing and grooming, 2) arising, 3) eating, 4) walking, 5) hygiene, 6) reach, 7) grip, and 8) common daily activities. For each of these categories, patients report the amount of difficulty they have in performing two or three specific activities.
# There are four possible responses for the Disability Index questions: • Without any difficulty=0 • With some difficulty=1 • With much difficulty=2 • Unable to do=3. • The highest score reported by the patient for any component question of the eight categories determines the score for that category. • If a component question is left blank or the response is too ambiguous to assign a score, then the score for that category is determined by the remaining completed question(s). • If all component questions are blank or if more than one answer is given, then follow up with the respondent is required. • If the respondent's mark is between the response columns, then move it to the closest one. If it's directly between the two, move it to the higher one.
# Each of the disability items on the SHAQ has a companion aids/devices variable that is used to record what type(s) of assistance, if any, the participant uses for his/her usual activities. These variables (see below) are coded as follows: • 0=No assistance is needed. • 1=A special device is used by the patient in his/her usual activities. • 2=The patient usually needs help from another person. • 3=The patient usually needs BOTH a special device AND help from another person.
# The scoring variables and scoring rules permit the computation of two disability indices, the Standard Disability Index and the Alternative Disability Index.
# This question results in a new set of category scores that are computed by adjusting the score for each category, if necessary, based on the patient's use of an aid or device or assistance for that category. If either devices and/or help from another person are checked for a category, the score is set to “2”, unless the score is already “3” (i.e., scores of “0” or “1” are increased to “2”). For example, if the highest score for the dressing category is “1”, and the patient says they use a device for dressing, the computed category score would be “2”. The sum of the computed categories scores is then calculated and divided by the number of categories answered. This gives a score in the 0 to 3 range.
# The aid and device variables are not used to calculate the alternative disability index; it is calculated by adding the scores for each of the categories and dividing by the number of categories answered. This gives a score in the 0 to 3 range.
# The standard, validated, patient reported outcome measures tool for SSc patients, the SHAQ, was collected at the time points specified in the study schedules (FIG. 2 and FIGS. 4A and 4B) to assess the participant's quality of life. The SHAQ included a Raynaud's VAS that will also be reported separately.
# [1] = Day 12 vs baseline, Subject 01-110 Day 12 score excluded
# [2] = In-Clinic Visit (Day 12), Subject 01-110 Day 12 score excluded
compound,measurement,setting,value
COCCOC(=O)C1=C(C)NC(C)=C(C(=O)OC/C=C/c2ccccc2)C1c1cccc([N+](=O)[O-])c1 (stereo not drawn) [Pooled Cilnidipine],"SHAQ Visual Analogue Scale - Raynaud’s, Change from Baseline, Min",Day 12 vs baseline,−2.40
same,"SHAQ Visual Analogue Scale - Raynaud’s, Change from Baseline, Q1",Day 12 vs baseline,−1.050
same,"SHAQ Visual Analogue Scale - Raynaud’s, Change from Baseline, Q3",Day 12 vs baseline,0.350
same,"SHAQ Visual Analogue Scale - Raynaud’s, Percent Change from Baseline, Max",Day 12 vs baseline,136.4%
same,"SHAQ Visual Analogue Scale - Raynaud’s, Percent Change from Baseline, Mean",Day 12 vs baseline,−18.62%
same,"SHAQ Visual Analogue Scale - Raynaud’s, Percent Change from Baseline, Median",Day 12 vs baseline,−33.33%
same,"SHAQ Visual Analogue Scale - Raynaud’s, Percent Change from Baseline, Min",Day 12 vs baseline,−100.0%
same,"SHAQ Visual Analogue Scale - Raynaud’s, Percent Change from Baseline, Q1",Day 12 vs baseline,−68.57%
same,"SHAQ Visual Analogue Scale - Raynaud’s, Percent Change from Baseline, Q3",Day 12 vs baseline,−2.27%
same,"SHAQ Visual Analogue Scale - Breathing Problems, Change from Baseline, Max",[1],0.60
same,"SHAQ Visual Analogue Scale - Breathing Problems, Change from Baseline, Mean",[1],−0.388
same,"SHAQ Visual Analogue Scale - Breathing Problems, Change from Baseline, Median",[1],0.000
same,"SHAQ Visual Analogue Scale - Breathing Problems, Change from Baseline, Min",[1],−2.00
same,"SHAQ Visual Analogue Scale - Breathing Problems, Change from Baseline, Q1",[1],−1.000
same,"SHAQ Visual Analogue Scale - Breathing Problems, Change from Baseline, Q3",[1],0.150
same,"SHAQ Visual Analogue Scale - Breathing Problems, Percent Change from Baseline, Max",[1],150.0%
same,"SHAQ Visual Analogue Scale - Breathing Problems, Percent Change from Baseline, Mean",[1],−0.22%
same,"SHAQ Visual Analogue Scale - Breathing Problems, Percent Change from Baseline, Median",[1],−16.00%
same,"SHAQ Visual Analogue Scale - Breathing Problems, Percent Change from Baseline, Min",[1],−100.0%
same,"SHAQ Visual Analogue Scale - Breathing Problems, Percent Change from Baseline, Q1",[1],−66.67%
same,"SHAQ Visual Analogue Scale - Breathing Problems, Percent Change from Baseline, Q3",[1],31.58%
same,"SHAQ Alternative Disability Index, Max",In-Clinic Visit (Day 12),1.25
same,"SHAQ Alternative Disability Index, Mean",In-Clinic Visit (Day 12),0.391
same,"SHAQ Alternative Disability Index, Median",In-Clinic Visit (Day 12),0.188
same,"SHAQ Alternative Disability Index, Min",In-Clinic Visit (Day 12),0.00
same,"SHAQ Alternative Disability Index, Q1",In-Clinic Visit (Day 12),0.000
same,"SHAQ Alternative Disability Index, Q3",In-Clinic Visit (Day 12),0.750
same,"SHAQ Visual Analogue Scale - Finger Ulcers, Max",In-Clinic Visit (Day 12),1.90
same,"SHAQ Visual Analogue Scale - Finger Ulcers, Mean",In-Clinic Visit (Day 12),0.463
same,"SHAQ Visual Analogue Scale - Finger Ulcers, Median",In-Clinic Visit (Day 12),0.000
same,"SHAQ Visual Analogue Scale - Finger Ulcers, Min",In-Clinic Visit (Day 12),0.00
same,"SHAQ Visual Analogue Scale - Finger Ulcers, Q1",In-Clinic Visit (Day 12),0.000
same,"SHAQ Visual Analogue Scale - Finger Ulcers, Q3",In-Clinic Visit (Day 12),0.900
same,"SHAQ Visual Analogue Scale - Intestinal Problems, Max",In-Clinic Visit (Day 12),3.80
same,"SHAQ Visual Analogue Scale - Intestinal Problems, Mean",In-Clinic Visit (Day 12),0.975
same,"SHAQ Visual Analogue Scale - Intestinal Problems, Median",In-Clinic Visit (Day 12),0.300
same,"SHAQ Visual Analogue Scale - Intestinal Problems, Min",In-Clinic Visit (Day 12),0.00
same,"SHAQ Visual Analogue Scale - Intestinal Problems, Q1",In-Clinic Visit (Day 12),0.000
same,"SHAQ Visual Analogue Scale - Intestinal Problems, Q3",In-Clinic Visit (Day 12),1.700
same,"SHAQ Visual Analogue Scale - Overall Disease Severity, Max",In-Clinic Visit (Day 12),5.20
same,"SHAQ Visual Analogue Scale - Overall Disease Severity, Mean",In-Clinic Visit (Day 12),1.475
same,"SHAQ Visual Analogue Scale - Overall Disease Severity, Median",In-Clinic Visit (Day 12),1.300
same,"SHAQ Visual Analogue Scale - Overall Disease Severity, Min",In-Clinic Visit (Day 12),0.00
same,"SHAQ Visual Analogue Scale - Overall Disease Severity, Q1",In-Clinic Visit (Day 12),0.350
same,"SHAQ Visual Analogue Scale - Overall Disease Severity, Q3",In-Clinic Visit (Day 12),1.650
same,"SHAQ Visual Analogue Scale - Pain, Max",In-Clinic Visit (Day 12),4.30
same,"SHAQ Visual Analogue Scale - Pain, Mean",In-Clinic Visit (Day 12),1.875
same,"SHAQ Visual Analogue Scale - Pain, Median",In-Clinic Visit (Day 12),1.550
same,"SHAQ Visual Analogue Scale - Pain, Min",In-Clinic Visit (Day 12),0.00
same,"SHAQ Visual Analogue Scale - Pain, Q1",In-Clinic Visit (Day 12),0.550
same,"SHAQ Visual Analogue Scale - Pain, Q3",In-Clinic Visit (Day 12),3.250
same,"SHAQ Visual Analogue Scale - Raynaud’s, Max",In-Clinic Visit (Day 12),4.40
same,"SHAQ Visual Analogue Scale - Raynaud’s, Mean",In-Clinic Visit (Day 12),1.900
same,"SHAQ Visual Analogue Scale - Raynaud’s, Median",In-Clinic Visit (Day 12),1.250
same,"SHAQ Visual Analogue Scale - Raynaud’s, Min",In-Clinic Visit (Day 12),0.00
same,"SHAQ Visual Analogue Scale - Raynaud’s, Q1",In-Clinic Visit (Day 12),0.700
same,"SHAQ Visual Analogue Scale - Raynaud’s, Q3",In-Clinic Visit (Day 12),3.450
same,"SHAQ Visual Analogue Scale - Breathing Problems, Max",[2],6.30
same,"SHAQ Visual Analogue Scale - Breathing Problems, Mean",[2],1.213
same,"SHAQ Visual Analogue Scale - Breathing Problems, Median",[2],0.200
same,"SHAQ Visual Analogue Scale - Breathing Problems, Min",[2],0.00
same,"SHAQ Visual Analogue Scale - Breathing Problems, Q1",[2],0.000
same,"SHAQ Visual Analogue Scale - Breathing Problems, Q3",[2],1.500
